# Results reported in patent US20240174639A1, “PYRIDINE DERIVATIVES USEFUL AS HCN2 MODULATORS” (King's College London, priority 2021, published 2024).
# Structures can show the parent of a compound that is named as a salt.
# Assays:
# [1] = target: T1, HCN2 (Homo sapiens, UniProt Q9UL51); assay: HCN2 assay using PatchXpress 7000A (Example 50A); assay type: cell-based; details: for IC50: PatchXpress protocol (PX); for selective for HCN2 over HCN4: PatchXpress protocol (PX) assay
# T1 sequence (Q9UL51 1-889): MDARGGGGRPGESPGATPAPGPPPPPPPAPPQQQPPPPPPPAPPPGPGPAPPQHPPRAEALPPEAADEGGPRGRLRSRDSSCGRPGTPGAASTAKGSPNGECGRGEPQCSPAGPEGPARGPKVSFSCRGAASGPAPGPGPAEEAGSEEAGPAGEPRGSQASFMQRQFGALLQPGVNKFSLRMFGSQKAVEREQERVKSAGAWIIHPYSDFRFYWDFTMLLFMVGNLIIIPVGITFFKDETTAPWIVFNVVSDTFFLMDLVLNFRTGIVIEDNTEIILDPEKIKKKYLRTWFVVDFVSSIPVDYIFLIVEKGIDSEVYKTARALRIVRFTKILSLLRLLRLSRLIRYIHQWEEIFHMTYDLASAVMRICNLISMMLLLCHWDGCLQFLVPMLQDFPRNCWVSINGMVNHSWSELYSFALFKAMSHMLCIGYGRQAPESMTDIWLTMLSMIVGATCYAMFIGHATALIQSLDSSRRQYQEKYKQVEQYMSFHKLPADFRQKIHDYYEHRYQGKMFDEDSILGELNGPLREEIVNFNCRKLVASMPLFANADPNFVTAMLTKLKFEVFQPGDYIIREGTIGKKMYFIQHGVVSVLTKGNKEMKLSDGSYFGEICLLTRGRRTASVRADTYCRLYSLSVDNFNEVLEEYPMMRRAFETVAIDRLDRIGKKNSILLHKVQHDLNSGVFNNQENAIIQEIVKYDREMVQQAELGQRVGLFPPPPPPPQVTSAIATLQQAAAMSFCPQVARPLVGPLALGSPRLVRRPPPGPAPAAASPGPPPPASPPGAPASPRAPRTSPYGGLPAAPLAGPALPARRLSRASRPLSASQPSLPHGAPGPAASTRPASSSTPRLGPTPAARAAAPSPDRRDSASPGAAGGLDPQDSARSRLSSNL
# Source text: (§1) Solutions for recording HON currents were:
# For HCN1 and HCN2, the pulse protocol involved stepping from a holding potential of −30 mV to −110 mV (see FIG. 1A) for 2 seconds to evoke the current. The membrane voltage was then stepped back to −30 mV for a further 8 seconds. This sequence was evoked repeatedly every 10 seconds throughout the experiment, starting prior to drug (Control A) and during cumulative additions of 5 increasing compound concentrations, then finally a 100% inhibiting concentration of cesium chloride (CsCl, 3 mM).
# (§2) The peak inward current measured at the end of the pulse to −110 mV (HCN1 and HCN2) or −130 mV (HCN4) was measured and any leak current subtracted to calculate the HCN current. The HCN current amplitude was measured after each control or compound addition and normalized to the control amplitude (Control A).
# (§3) All experiments were performed at room temperature (approximately 22° C.).
# (§4) Each test compound concentration was applied to the cell for seven (7) minutes, at which point the next cumulative concentration was applied. 3 mM CsCl was applied to each cell for 2 minutes at the end of each experiment (Control B) to determine 100% inhibition level of the HCN current.
# [2] = target: T2, HCN4 (Homo sapiens, UniProt Q9Y3Q4); assay: HCN4 assay using PatchXpress 7000A (Example 50A); assay type: cell-based; details: PatchXpress protocol (PX)
# T2 sequence (Q9Y3Q4 1-1203): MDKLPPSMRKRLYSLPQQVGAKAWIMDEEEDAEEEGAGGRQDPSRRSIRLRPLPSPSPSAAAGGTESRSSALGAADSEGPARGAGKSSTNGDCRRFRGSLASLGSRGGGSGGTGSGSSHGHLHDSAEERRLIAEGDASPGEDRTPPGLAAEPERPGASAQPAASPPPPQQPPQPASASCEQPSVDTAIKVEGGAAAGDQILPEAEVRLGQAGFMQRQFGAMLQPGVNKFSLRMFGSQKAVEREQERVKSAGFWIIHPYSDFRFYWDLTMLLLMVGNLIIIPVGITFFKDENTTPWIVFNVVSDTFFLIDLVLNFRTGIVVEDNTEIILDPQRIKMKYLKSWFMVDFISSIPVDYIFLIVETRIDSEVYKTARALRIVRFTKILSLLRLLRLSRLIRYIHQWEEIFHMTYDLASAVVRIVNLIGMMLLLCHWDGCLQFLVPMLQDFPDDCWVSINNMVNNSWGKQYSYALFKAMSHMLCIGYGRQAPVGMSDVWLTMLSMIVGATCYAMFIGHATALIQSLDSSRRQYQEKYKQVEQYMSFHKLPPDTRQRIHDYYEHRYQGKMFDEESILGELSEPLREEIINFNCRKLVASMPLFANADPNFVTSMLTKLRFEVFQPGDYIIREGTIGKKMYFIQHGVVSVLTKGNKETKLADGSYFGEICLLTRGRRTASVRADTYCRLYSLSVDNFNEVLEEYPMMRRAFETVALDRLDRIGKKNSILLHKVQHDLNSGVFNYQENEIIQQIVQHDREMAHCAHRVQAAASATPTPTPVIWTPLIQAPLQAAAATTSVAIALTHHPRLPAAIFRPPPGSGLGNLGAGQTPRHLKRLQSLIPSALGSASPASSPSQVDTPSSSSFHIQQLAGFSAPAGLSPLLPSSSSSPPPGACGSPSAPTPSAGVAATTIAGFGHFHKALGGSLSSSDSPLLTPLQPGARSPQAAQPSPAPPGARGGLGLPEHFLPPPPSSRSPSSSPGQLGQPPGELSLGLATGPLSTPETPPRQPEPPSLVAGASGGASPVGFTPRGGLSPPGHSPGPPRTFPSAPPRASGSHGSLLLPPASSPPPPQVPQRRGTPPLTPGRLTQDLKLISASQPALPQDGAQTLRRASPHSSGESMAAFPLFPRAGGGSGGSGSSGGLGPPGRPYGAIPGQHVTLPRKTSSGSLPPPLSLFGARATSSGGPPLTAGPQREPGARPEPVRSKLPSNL
# Experimental: as §1
# For HCN4, the pulse protocol involved stepping from a holding potential of −30 mV to −130 mV (see FIG. 1B) for 4 seconds to evoke the current.
# as §2, §3, §4
# [3] = tested on: WT Black6 strain mice; assay: Mouse neuropathic pain model (partial sciatic nerve ligation), von Frey filament (Example 57); assay type: in vivo; details: day 5 after PSNL
# Experimental: The compounds of Example 2 and Example 4 were tested in a mouse neuropathic pain model using WT Black6 strain mice. The model used was analogous to the model described in Seltzer Z, Dubner R, & Shir Y (1990), A novel behavioural model of neuropathic pain disorders produced in rats by partial sciatic nerve injury, Pain 43: 205-218). […] Sci Transl Med 9: eaam6072.
# The test compounds were administered i.p. to the mice on day 5 following partial sciatic nerve ligation surgery, average data from 3-4 mice. The mechanical pain threshold was measured by manual von Frey filament applied to hind paw on the operated side, using the “up-down” method. The test compounds were compared to ivabradine at 5 mg/kg i.p. and i.p. injection of vehicle.
# [4] = tested on: Black6 strain mice; assay: Bradycardia testing, heart rate by MouseOx pulse oximeter (Example 58); assay type: in vivo; details: awake Black6 mice
# Experimental: Test compounds were administered i.p. to awake, behaving, Black6 strain mice together with a vehicle only control arm. Heart rate in the mice were measured with MouseOx pulse oximeter.
# The compound of Example 2 was administered to awake, behaving, Black6 strain mice at doses ranging from 0.05 mg/kg to 2 mg/kg. The effect of the compound of Example 2 on heart beat is shown in FIG. 11 compared to ivabradine administered at a dose of 5 mg/kg i.p, and a vehicle control.
# [5] = target: T1, HCN2; assay: HCN2 assay using the Sophion Qube (Example 50B); assay type: cell-based; details: Sophion Qube protocol (SQ)
# Experimental: Solutions for recording HCN currents were:
# For HCN1 and HCN2 the cells were held at −30 mV and then stepped to −110 mV for 2 seconds before stepping back to −30 mV, this represents 1 experimental sweep. This voltage protocol was applied every 20 seconds for the duration of the experiment. Both the vehicle (0.3% DMSO) and full block (3 mM CsCl) addition periods were applied for 10 experimental sweeps each. The compound addition period was applied for 30 sweeps.
# The currents evoked by the step to −110 mV (HCN1 and HCN2) or −130 mV (HCN4) were measured for the analysis of the percentage inhibition by test compounds. The current amplitudes were measured by subtracting metric A from metric B (see FIG. 2) with inhibition calculated by normalising to the vehicle addition (0.3% DMSO) and full inhibition by 3 mM CsCl in the same well.
# In total, compound was applied to the well for 600 seconds.
# [6] = target: T2, HCN4; assay: HCN4 assay using the Sophion Qube (Example 50B); assay type: cell-based; details: Sophion Qube protocol (SQ)
# Experimental: Solutions for recording HCN currents were: [table] For HCN4, the cells were held at −30 mV and then stepped to −130 mV for 4 seconds before stepping back to −30 mV, this represents 1 experimental sweep. This voltage protocol was applied every 20 seconds for the duration of the experiment. Both the vehicle (0.3% DMSO) and full block (3 mM CsCl) addition periods were applied for 10 experimental sweeps each. The compound addition period was applied for 30 sweeps. The currents evoked by the step to −110 mV (HCN1 and HCN2) or −130 mV (HCN4) were measured for the analysis of the percentage inhibition by test compounds. The current amplitudes were measured by subtracting metric A from metric B (see FIG. 2) with inhibition calculated by normalising to the vehicle addition (0.3% DMSO) and full inhibition by 3 mM CsCl in the same well. […] In total, compound was applied to the well for 600 seconds.
Compound,IC50 [5],IC50 [6],other results
"Cc1ccc(C#N)nc1C[C@H](N)c1ncccc1-n1ncc2ccccc21 [Example 2, (S)-6-{2-[3-(1H-indazol-1-yl)pyridine-2-yl]-2-aminoethyl}-5-methylpyridin-2-carbonitrile hydrochloride]",–,–,IC50 [1]: 30 nM; selective for HCN2 over HCN4 [1]: 21 times; IC50 [2]: 500 nM; mechanical analgesia (von Frey pain threshold) ([3]; 0.2 mg/kg i.p.): full analgesia; bradycardia (heart rate) ([4]; 0.2 mg/kg i.p.): minimal bradycardia
"N[C@@H](Cc1ccccn1)c1ncccc1-n1ncc2ccccc21 [Example 4, (S)-1-[3-(1H-indazole-1-yl)pyridine-2-yl]-2-(pyridine-2-yl)ethan-1-amine hydrochloride]",–,–,IC50 [1]: 1600 nM; selective for HCN2 over HCN4 [1]: more than 19 times; IC50 [2]: > 30000 nM; mechanical analgesia (von Frey pain threshold) ([3]; 2 mg/kg i.p.): maximal analgesia; mechanical analgesia (von Frey pain threshold) ([3]; 10 mg/kg i.p.): maximal analgesia; bradycardia (heart rate) ([4]; 2 mg/kg i.p.): minimal bradycardia
"Cc1ccc(C#N)nc1C[C@H](N)c1ncccc1-n1ncc2cc(Br)ccc21 [Example 36, hydrochloride]",770 nM,4700 nM,–
"N#Cc1ccc(F)c(C[C@H](N)c2ncccc2-n2ncc3cc(F)ccc32)n1 [Example 38, (S)-6-{2-Amino-2-[3-(5-fluoro-1H-indazol-1-yl)pyridine-2-yl]ethyl}-5-fluoropyridine-2-carbonitrile]",790 nM,> 30000 nM,–
"Cc1ccc2c(cnn2-c2cccnc2[C@@H](N)Cc2nc(C#N)ccc2F)c1 [Example 39, (S)-6-{2-Amino-2-[3-(5-methyl-1H-indazol-1-yl)pyridine-2-yl]-ethyl}-5-fluoropyr-idine-2-carbonitrile hydrochloride]",310 nM,3700 nM,–
"CS(=O)(=O)c1ccc(F)c(C[C@H](N)c2ncccc2-n2ncc3cc(Cl)ccc32)n1 [Example 41, (S)-1-[3-(5-Chloro-1H-indazole-1-yl)-pyridine-2-yl]-2-(3-fluoro-6-methylsulfon-ylpyridine-2-yl)ethan-1-amine hydrochloride]",3900 nM,> 30000 nM,–
"N#Cc1ccc(F)c(C[C@H](N)c2ncccc2-n2ncc3cc(Cl)ccc32)n1 [Example 45, (S)-6-{2-Amino-2-[3-(5-chloro-1H-indazol-1-yl)pyridine-2-yl-ethyl}-5-fluoropyr-idine-2-carbonitrile hydrochloride]",600 nM,3400 nM,–
Cc1ccc(C#N)nc1C[C@H](N)c1ncccc1-n1ncc2cc(F)ccc21 [Example 47],630 nM,10000 nM,–
"CS(=O)(=O)c1ccc(F)c(C[C@H](N)c2ncccc2-n2ncc3cc(Br)ccc32)n1 [Example 48, (S)-1-[3-(5-Bromo-1H-indazole-1-yl)pyridine-2-yl]-2-(3-fluoro-6-methylsulfonylpyr-idine-2-yl)ethan-1-amine hydrochloride]",2100 nM,11100 nM,–
